Targets include Carbonic anhydrase 1 (Homo sapiens, UniProt P00915); Carbonic anhydrase 6 (Homo sapiens, UniProt P23280); Carbonic anhydrase 2 (Homo sapiens, UniProt P00918).
Common to all, as to assay: CA Inhibition Assay
Holding throughout (conditions): pH 7.5; 25 °C

The values below come from BindingDB's records for doi:10.3109/14756366.2011.637200 (Kirklareli University, 2013).

Structures are written as SMILES.

Carbonic anhydrase 6, sequence (P23280 whole entry): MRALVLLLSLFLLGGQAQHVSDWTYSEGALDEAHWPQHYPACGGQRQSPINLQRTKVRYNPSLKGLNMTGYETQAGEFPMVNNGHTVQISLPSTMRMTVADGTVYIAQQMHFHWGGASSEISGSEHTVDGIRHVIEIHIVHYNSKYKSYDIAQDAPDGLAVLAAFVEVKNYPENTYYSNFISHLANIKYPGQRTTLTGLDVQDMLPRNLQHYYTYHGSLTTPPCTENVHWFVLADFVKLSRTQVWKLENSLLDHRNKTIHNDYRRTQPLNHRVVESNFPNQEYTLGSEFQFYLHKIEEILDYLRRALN
Carbonic anhydrase 1, sequence (P00915 whole entry): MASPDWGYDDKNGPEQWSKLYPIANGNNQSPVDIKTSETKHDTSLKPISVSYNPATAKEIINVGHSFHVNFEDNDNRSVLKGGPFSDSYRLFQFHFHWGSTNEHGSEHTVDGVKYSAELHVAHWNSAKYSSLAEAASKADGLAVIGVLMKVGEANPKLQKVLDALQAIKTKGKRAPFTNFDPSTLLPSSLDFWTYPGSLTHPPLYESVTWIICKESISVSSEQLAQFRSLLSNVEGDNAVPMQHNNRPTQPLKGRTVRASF

The Ki is a measure of affinity in units of concentration, obtained from inhibition or displacement. Read a low Ki as tighter binding. Turning to `Cc1c(CCO)sc[n+]1C` [CA inhibitor, 1], the Ki at Carbonic anhydrase 1 amounted to 2270 nM; at Carbonic anhydrase 6, 593 nM; at Carbonic anhydrase 2 it was 784 nM.
With `Cc1c(CCO)sc[n+]1Cc1ccccc1` [CA inhibitor, 2], the Ki on Carbonic anhydrase 1 was found to be 1150 nM; at Carbonic anhydrase 6, 128 nM; on Carbonic anhydrase 2, 105 nM.
For `Cc1ncc(C[n+]2csc(CCO)c2C)c(N)n1` [Vitamin B 1], the Ki was determined as 380 nM on Carbonic anhydrase 1, 62 nM on Carbonic anhydrase 6 and 85 nM at Carbonic anhydrase 2.
